These results are taken from patent US4920016A, “Liposomes with enhanced circulation time” (Linear Technology, Inc., priority 1987, dated 1990).

This data set can be described thus: Uptake of doxorubicin into J6456 mouse tumors. The following applies: in vivo, J6456 mice, IV, fluorometric (Table 14), read-out: Percent of Injected Dose (DXR)/q Tumor (SD). The method, then: Sized MLVs having one of the three lipid compositions shown in Table 14 below were prepared as above. Doxorubicin was included in the hydration buffer, at a concentration of about 5 mg/ml, and free drug was removed from the sized liposomes by gel filtration.
Mice innoculated with J6456 lymphoma cells were injected IV with the MLVs (1 umole phospholipid/animal) or with an equivalent amount of free doxorubicin. Tissue distribution of the drug, 24 hours post administration, was determined fluorometrically, with the results shown in Tables 13 below.

As for `COc1cccc2c1C(=O)c1c(O)c3c(c(O)c1C2=O)C[C@@](O)(C(=O)CO)C[C@@H]3O[C@H]1C[C@H](N)[C@H](O)[C@H](C)O1` [FREE DXR, doxorubicin], the tissue uptake at 24 h turned out to be 0.4 %ID/g.
